Structures can show the parent of a compound that is named as a salt. Where two headings read alike, the source gives them in different places.

We go through two compounds from patent US11738030B2, “Treatments for disturbed cerebral homeostasis” (Aneuryst, Inc., priority 2021, dated 2023).

For assay [1], the system named is adult male Sprague-Dawley rats. To be noted: cited from earlier work; for Garcia neurological score: SAH + HF.
Assay [2] relates to adult male Sprague-Dawley rats. Nature of the assay: Brain water content after endovascular perforation in rats. In kind it is in vivo, rat. To be noted: one treatment, 24 h. Here is the method:
A sharpened 4-0 nylon suture was introduced into the left internal carotid artery of 92 adult male Sprague-Dawley rats weighing […]. In 65 of the 92 rats, the bifurcation of the anterior and middle cerebral arteries was endovascularly perforated; in the remaining 27 rats, the suture was withdrawn without perforation.
At 0.5 hours after the procedure, 34 of the 65 perforated rats were administered 1.5 ml of 0.9% saline (vehicle group), and the remaining 31 were administered 10 mg/kg hydroxyfasudil dissolved in 1.5 ml of 0.9% saline (hydroxyfasudil group). The 27 unperforated rats received neither vehicle nor […] (sham group).
24 hours after the procedure, all rats were sacrificed. The animals' brains were removed and separated into left hemisphere, right hemisphere, cerebellum and brain stem. Each part was weighed immediately after removal (wet weight) and after drying in 100° C. for 72 h (dry weight). The percentage of water content was calculated as [(wet weight−dry weight)/wet weight]×100%.

For assay [3], the system named is adult male Sprague-Dawley rats. To be noted: cited from earlier work; for Mean percentage of brain water content, Cerebellum / Mean percentage of brain water content, Left Hemisphere / Mean percentage of brain water content, Right Hemisphere: 24 hrs post-surgery.
The nature of assay [4]: Intraparenchymal ICP measurement in adult patient with suspected bacterial meningitis. It is filed as in vivo. Particulars: 60 mg intravenous infusion; adult patient with ICP>20 mmHg and suspected bacterial meningitis. The protocol: In an adult patient with an ICP>20 mmHg and suspected bacterial meningitis as determined by lumbar puncture, one would administer by intravenous infusion 60 mg fasudil hydrochloride. One would place an intraparenchymal device to measure ICP in the patient.

[5] abbreviates: two treatments instead of one, and measurements at 72 hours after perforation.
The mark [6] stands for this setting: one treatment, 10 mg/kg at 0.5 h after perforation, 10 mg/kg.
Setting [7] is: one treatment, 10 mg/kg at 0.5 h after perforation, listed as HF, 10 mg/kg.

For the compound `O=c1[nH]ccc2c(S(=O)(=O)N3CCCNCC3)cccc12` [hydroxyfasudil], the Garcia neurological score in assay [1] (1 treatment, 24 hrs, score out of 18) is 14; in assay [1] (1 treatment, 72 hrs) it was 14; in assay [1] (2 treatments, 24 hrs), 15.5. For the same compound, the “Difference in neurological performance between vehicle group and hydroxyfasudil group” value in assay [1] (setting [5]) was “failed to demonstrate any significant differences”. In assay [2] (vehicle increase 0.5%), the “Increase in water content versus sham group, right hemisphere” value was “about 0.25%”. Also, the “Increase in water content versus sham group, cerebellum” value in assay [2] (vehicle increase 0.6%) is listed as “about 0.2%”. In assay [2] (vehicle increase 0.7%), the “Increase in water content versus sham group, left hemisphere” value is reported as “about 0.3%”. In addition, in assay [2] (versus vehicle, p<0.01), the “Improvement in water content increase, left hemisphere” value is “about 57%”. The “Improvement in water content increase, right hemisphere” value in assay [2] (versus vehicle, p<0.01) is given as “about 70%”. Besides, in assay [2] (versus vehicle, p<0.05), the “Improvement in water content increase, cerebellum” value was “about 67%”. Moreover, the “Mean percentage of brain water content, Cerebellum” value is reported as about 78.7% in assay [3] (setting [6]), 78.7% in assay [3] (setting [7]) and 78.84% in assay [3] (two treatments). Besides, the “Mean percentage of brain water content, Left Hemisphere” value in assay [3] (setting [6]) is given as about 79.3%; in assay [3] (setting [7]) it was 79.3%; in assay [3] (two treatments) it was 79.3%. Besides, the “Mean percentage of brain water content, Right Hemisphere” value was about 79.25% in assay [3] (setting [6]), 79.35% in assay [3] (setting [7]) and 79.25% in assay [3] (two treatments). Also, the “Difference in brain water content between vehicle group and hydroxyfasudil group” value in assay [3] (setting [5]) is “failed to demonstrate any significant differences”.
Take `O=S(=O)(c1cccc2cnccc12)N1CCCNCC1` [fasudil hydrochloride]: the “ICP upon fasudil infusion” value in assay [4] was “reduction of ICP”.
